In assay [1] the test system is Vero. In words: Cytotoxicity against Vero cells after 72 hrs. Type of assay: cell-based. The conditions noted are these: Chlorocebus sabaeus.
Assay [2] has as its system MCF7. In words: Growth inhibition of MCF7 cells. The assay is classed as functional, cell-based. As to conditions: Homo sapiens.
The test system of assay [3] is Trypanosoma cruzi. Put plainly: Growth inhibition of Trypanosoma cruzi recombinant Tulahuen C4. Type of assay: functional, organism-based.
Assay [4] has as its system Plasmodium falciparum. In words: Antiplasmodial activity against chloroquine-resistant Plasmodium falciparum W2 Indochina. The assay is classed as functional, organism-based.
For assay [5], the system named is Leishmania donovani. Put plainly: Growth inhibition of Leishmania donovani MHOM/SD/00-1S after 72 hrs by amastigote assay. The assay is classed as functional, organism-based.

Molecules are shown by their SMILES. Some results are limits rather than exact numbers.

As usually defined, the IC50 is the concentration that gives 50% inhibition. With `Cc1oc2nc1C(=O)N[C@H](C)c1nc(cs1)C(=O)N[C@H](C(C)C)c1nc(cs1)C(=O)N[C@@H]2C` [VENTURAMIDE A], the IC50 in assay [1] was 86 µM; in assay [2], 13.1 µM; in assay [3] it was 14.6 µM; in assay [4], 8.2 µM; in assay [5] it was over 20 µM.
In the case of `Cc1oc2nc1C(=O)N[C@H]([C@@H](C)O)c1nc(cs1)C(=O)N[C@H](C(C)C)c1nc(cs1)C(=O)N[C@@H]2C` [VENTURAMIDE B], the IC50 in assay [1] is 56 µM; in assay [2] it was over 54 µM; in assay [3], 15.8 µM; in assay [4] it was 5.2 µM; in assay [5], over 19 µM.

For the origin of these results see ChEMBL document CHEMBL1142969, “Venturamides A and B: antimalarial constituents of the panamanian marine Cyanobacterium Oscillatoria sp” (J Nat Prod, 2007).
